Like-named read-outs stand apart in the source and are kept apart here.
Tests used:
tubulin [1] = assay: inhibition of radiolabeled colchicine binding to tubulin (ICB); set-up: species or system bovine; conditions: evaluated only when polymerization IC50 ≤ 1.0 μM; inhibitor equimolar with [3H]colchicine, 5-fold molar excess over tubulin
Method: Studies conducted in support of the present invention indicate that one mode of action of the 2-phenyl-4-quinolone compounds, as antitumor agents, is an ability to bind to tubulin and inhibit cell mitosis. […] […].
[…]. […] […].
Electrophoretically homogeneous bovine brain tubulin was purified as described previously (Hamel, et al., 1984). Combretastatin A-4 was a generous gift of Dr. G. R. Pettit, Arizona State University. Dihydrocombretastatin A-4 was prepared as described previously (Getahun et al., 1992). […]

tubulin [2] = assay: inhibition of tubulin polymerization (ITP); format: biochemical, bovine
Method: Electrophoretically homogeneous bovine brain tubulin was purified as described previously (Hamel, et al., 1984). […] Dihydrocombretastatin A-4 was prepared as described previously (Getahun et al., 1992).
The tubulin polymerization assay was performed as described previously (Li et al., 1994). In brief, tubulin at 1.2 mg/mL ([…]) was preincubated for 15 min at 26° C. in a 0.24 mL volume in 0.8M monosodium glutamate (pH 6.6 with NaOH in a 2M stock solution) with varying drug concentrations. The drug stock solutions were in dimethyl sulfoxide, and the final solvent concentration was 4% (v/v). […] All concentrations are in terms of the final reaction volume (0.25 mL). The reaction mixtures were chilled on ice, and […] of 10 mM GTP was added to each reaction mixture. Samples were transferred to cuvettes held at 0° C. by an electronic temperature controller in Gilford spectrophotometers. Baselines were established at 350 nm, and polymerization initiated by a temperature jump to 26° C. The jump took about 50 sec to complete. After 20 min, turbidity readings were recorded, and the temperature controller was set to 0° C. When depolymerization was complete, turbidity readings were again recorded. […] IC50 values were obtained graphically from inhibition of polymerization by different drug concentrations. Four spectrophotometers were used for each experimental sequence, with at least two control reactions (no drug) in each set.

[3] = test system: approximately 60 different cell lines; assay: NCI in vitro disease-oriented human tumor cell screen, all cell lines; format: cell-based; conditions: Homo sapiens
Description: The cell lines tested included cells derived from the following solid tumor types: leukemia, non-small cell lung, colon, the central nervous system (CNS), melanoma, ovarian, renal, prostate, and breast cancers.

KM202L = assay: NCI in vitro tumor cell screen, KM20L2 colon cancer; format: cell-based; conditions: Homo sapiens, KM-20L2
Method: (§1) Selected 2-phenyl-4-quinolones were assayed using an in vitro, disease-oriented antitumor screen run by the National Cancer Institute (NCI) (e.g., Boyd 1989). The screen involved approximately 60 different cell lines and is a useful indicator of in vivo antitumor activity for a broad variety of tumor types (Grever et al., 1992; Monks et al., 1991). The cell lines tested included cells derived from the following solid tumor types: leukemia, non-small cell lung, colon, the central nervous system (CNS), melanoma, ovarian, renal, prostate, and breast cancers.

K-562 = assay: NCI in vitro tumor cell screen, K-562 leukemia; format: cell-based; conditions: Homo sapiens, K562
Method: as §1

SK-Mel-5 = assay: NCI in vitro tumor cell screen, SK-Mel-5 melanoma; format: cell-based; conditions: Homo sapiens
Method: as §1
(§2) melonoma; SF268 and SF295, CNS tumor cell lines; DU145, prostate cancer

HCT116 = assay: NCI in vitro tumor cell screen, HCT116 colon cancer; format: cell-based; conditions: Homo sapiens, HCT-116
Method: as §1

NCI-H226 = assay: NCI in vitro tumor cell screen, NCI-H226 non-small cell lung cancer; format: cell-based; conditions: Homo sapiens
Method: as §1

SF-295 = assay: NCI in vitro tumor cell screen, SF-295 CNS tumor; format: cell-based
Method: as §1, §2

OVCAR-3 = assay: NCI in vitro tumor cell screen, OVCAR-3 ovarian cancer; format: cell-based; conditions: Homo sapiens
Method: as §1

SF-268 = assay: NCI in vitro tumor cell screen, SF-268 CNS tumor; format: cell-based; conditions: Homo sapiens
Method: as §1, §2

OVCAR-4 = assay: NCI in vitro tumor cell screen, OVCAR-4 ovarian cancer; format: cell-based; conditions: Homo sapiens
Method: as §1

RXF-393 = assay: NCI in vitro tumor cell screen, RXF-393 renal cancer; format: cell-based; conditions: Homo sapiens
Method: as §1

[4] = ± SD, tubulin 1.2 mg/mL, 26° C., 20 min, read-out: ITP IC50 (inhibition of tubulin polymerization)
[5] = calculated from all cell lines tested (Table II), read-out: average logGI50 (converted)
[6] = Homo sapiens, SF-295; read-out: logGI50 (converted)
[7] = SF-268, CNS tumor, read-out: logGI50 (converted)
[8] = average over cell lines, read-out: average log GI50 (converted)

Compound: O=c1cc(-c2cccc(OC(F)(F)F)c2)[nH]c2ccc(N3CCCC3)cc12 [compound 29, 3'-Trifluoromethoxy-6-pyrrolinyl-2-phenyl-4-quinolone]
- ICB (% inhibition of colchicine binding) (tubulin [1]): 58 ± 5%
- IC50 (tubulin [2]; [4]): 0.00072 ± 0.0002 mM

Compound: CN(C)c1cccc(-c2cc(=O)c3cc4c(cc3[nH]2)OCO4)c1 [compound 36]
- ICB (% inhibition of colchicine binding) (tubulin [1]): 29 ± 7%
- IC50 (tubulin [2]; [4]): 0.0007 ± 3e-05 mM

Compound: COc1ccc(CCc2cc(OC)c(OC)c(OC)c2)cc1O [dihydrocombretastatin A-4, reference compound]
- ICB (% inhibition of colchicine binding) (tubulin [1]): 65 ± 4%
- IC50 (tubulin [2]; [4]): 0.00063 ± 3e-05 mM

Compound: COc1cccc(-c2cc(=O)c3cc(NC(=O)c4ccccc4)ccc3[nH]2)c1 [compound 33, 3'-Methoxy-6'-benzamido-2-phenyl-4-quinolone]
- IC50 (tubulin [2]; [4]): 0.0013 ± 7e-05 mM

Compound: Nc1ccc2[nH]c(-c3cccc(C(F)(F)F)c3)cc(=O)c2c1 [compound 21, 3'-Trifluoromethyl-6-amino-2-phenyl-4-quinolone]
- GI50 [3, 5]: 39800 nM
- activity in tubulin polymerization assay, in words (tubulin [2]): inactive
- IC50 (tubulin [2]; values given in mM, read-out: IC50, inhibition of tubulin polymerization): > 0.04 mM
- IC50 (tubulin [2]; [4]): > 0.04 mM
- GI50 (KM202L): 34700 nM

Compound: O=c1cc(-c2cccc(C(F)(F)F)c2)[nH]c2cc3c(cc12)OCO3 [compound 16, 3'-Trifluoromethyl-6,7-methylenedioxy-2-phenyl-4-quinolone]
- GI50 [3, 5]: 2750 nM
- ICB (% inhibition of colchicine binding) (tubulin [1]): 5 ± 7%
- IC50 (tubulin [2]; [4]): 0.00082 ± 0.0002 mM
- GI50 (KM202L): 1380 nM

Compound: COc1cccc(-c2cc(=O)c3cc4c(cc3[nH]2)OCO4)c1 [compound 35]
- ICB (% inhibition of colchicine binding) (tubulin [1]): 39 ± 8%
- IC50 (tubulin [2]; [4]): 0.00057 ± 0.0001 mM

Compound: COc1cccc(-c2cc(=O)c3cc(N)ccc3[nH]2)c1 [compound 22, 3'-Methoxy-6-amino-2-phenyl-4-quinolone]
- GI50 [3, 5]: 4570 nM
- activity in tubulin polymerization assay, in words (tubulin [2]): moderately active
- IC50 (tubulin [2]; [4]): 0.0087 ± 0.003 mM
- GI50 (KM202L): 3470 nM

Compound: O=c1cc(-c2cccc(F)c2)[nH]c2cc3c(cc12)OCO3 [compound 13, 3'-Fluoro-6,7-methylenedioxy-2-phenyl-4-quinolone]
- GI50 [3, 5]: 339 nM
- ICB (% inhibition of colchicine binding) (tubulin [1]): 51 ± 3%
- GI50 (K-562): 339 nM
- GI50 (SK-Mel-5): 269 nM
- GI50 (HCT116): 219 nM
- IC50 (tubulin [2]; [4]): 0.00053 ± 0.0001 mM
- GI50 (NCI-H226): 955 nM
- GI50 (SF-295; [6]): 141 nM
- GI50 (OVCAR-3): 288 nM
- GI50 (SF-268; [7]): 661 nM

Compound: Nc1ccc2[nH]c(-c3cccc(Cl)c3)cc(=O)c2c1 [compound 20, 3'-Chloro-6-amino-2-phenyl-4-quinolone]
- GI50 (OVCAR-4): > 100000 nM
- GI50 [3, 5]: 5500 nM
- activity in tubulin polymerization assay, in words (tubulin [2]): moderately active
- IC50 (tubulin [2]; [4]): 0.0061 ± 0.001 mM
- GI50 (KM202L): 3160 nM

Compound: O=c1cc(-c2ccccc2)[nH]c2cc3c(cc12)OCO3 [compound 34]
- ICB (% inhibition of colchicine binding) (tubulin [1]): 26 ± 10%
- IC50 (tubulin [2]; [4]): 0.00063 ± 0.0002 mM

Compound: CC(=O)Nc1ccc2[nH]c(-c3cccc(F)c3)cc(=O)c2c1 [compound 25, 3'-Fluoro-6-acetamido-2-phenyl-4-quinolone]
- GI50 (SF-295; Homo sapiens, SF-295, read-out: logGI50 (converted)): 38900 nM
- GI50 (SF-268; SF-268, read-out: logGI50 (converted)): 25700 nM

Compound: O=c1cc(-c2cccc(Cl)c2)[nH]c2cc3c(cc12)OCO3 [compound 14, 3'-Chloro-6,7-methylenedioxy-2-phenyl-4-quinolone]
- GI50 (OVCAR-4): > 75900 nM
- GI50 [3, 5]: 501 nM
- ICB (% inhibition of colchicine binding) (tubulin [1]): 45 ± 7%
- GI50 (SK-Mel-5): 209 nM
- IC50 (tubulin [2]; [4]): 0.00037 ± 3e-05 mM
- GI50 (KM202L): 269 nM

Compound: COc1ccc(/C=C\c2cc(OC)c(OC)c(OC)c2)cc1O [combretastatin A-4, reference compound]
- ICB (% inhibition of colchicine binding) (tubulin [1]): 94 ± 2%

Compound: Nc1cccc(-c2cc(=O)c3cc4c(cc3[nH]2)OCO4)c1 [compound 10, 3'-Amino-6,7-methylenedioxy-2-phenyl-4-quinolone]
- GI50 (OVCAR-4): 38900 nM
- GI50 [3, 5]: 1620 nM
- ICB (% inhibition of colchicine binding) (tubulin [1]): 16 ± 7%
- GI50 (K-562): 891 nM
- GI50 (SK-Mel-5): 933 nM
- GI50 (HCT116): 479 nM
- IC50 (tubulin [2]; [4]): 0.00073 ± 0.0002 mM
- GI50 (RXF-393): 603 nM
- GI50 (NCI-H226): 2190 nM
- GI50 (SF-295; [6]): 2400 nM
- GI50 (KM202L): 708 nM
- GI50 (SF-268; [7]): 759 nM

Compound: COc1cc([C@@H]2c3cc4c(cc3[C@H](O)[C@H]3COC(=O)[C@H]23)OCO4)cc(OC)c1OC [podophyllotoxin, reference compound]
- ICB (% inhibition of colchicine binding) (tubulin [1]): 84 ± 2%

Compound: O=c1cc(-c2cccc(Br)c2)[nH]c2cc3c(cc12)OCO3 [compound 15, 3'-Bromo-6,7-methylenedioxy-2-phenyl-4-quinolone]
- GI50 (OVCAR-4): > 100000 nM
- GI50 [3, 8]: 3160 nM
- GI50 [3, 5]: 3310 nM
- ICB (% inhibition of colchicine binding) (tubulin [1]): 26 ± 3%
- GI50 (K-562): 3470 nM
- GI50 (SK-Mel-5): 4370 nM
- GI50 (HCT116): 3390 nM
- IC50 (tubulin [2]; [4]): 0.00053 ± 0.0001 mM
- GI50 (RXF-393): 2400 nM
- GI50 (NCI-H226): 3800 nM
- GI50 (SF-295; [6]): 331 nM
- GI50 (KM202L): 3090 nM
- GI50 (OVCAR-3): 4270 nM
- GI50 (SF-268; [7]): 3020 nM

Compound: O=c1cc(-c2cccc(O)c2)[nH]c2cc3c(cc12)OCO3 [compound 12, 3'-Hydroxy-6,7-methylenedioxy-2-phenyl-4-quinolone]
- GI50 [3, 8]: 3160 nM
- GI50 [3, 5]: 3090 nM
- ICB (% inhibition of colchicine binding) (tubulin [1]): 26 ± 3%
- GI50 (K-562): 724 nM
- GI50 (SK-Mel-5): 1480 nM
- GI50 (HCT116): 1820 nM
- IC50 (tubulin [2]; [4]): 0.00047 ± 0.0001 mM
- GI50 (SF-295; [6]): 5500 nM
- GI50 (KM202L): 3310 nM
- GI50 (SF-268; [7]): 2290 nM

Compound: COc1cccc(-c2cc(=O)c3cc(N4CCCCC4)ccc3[nH]2)c1 [compound 30, 3'-Methoxy-6-piperidinyl-2-phenyl-4-quinolone]
- ICB (% inhibition of colchicine binding) (tubulin [1]): 53 ± 6%
- IC50 (tubulin [2]; [4]): 0.00078 ± 0.0002 mM

Compound: CNc1cccc(-c2cc(=O)c3cc4c(cc3[nH]2)OCO4)c1 [compound 11, 3'-N-Methylamino-6,7-methylenedioxy-2-phenyl-4-quinolone]
- GI50 [3, 5]: 513 nM
- ICB (% inhibition of colchicine binding) (tubulin [1]): 17 ± 11%
- GI50 (K-562): 398 nM
- GI50 (SK-Mel-5): 447 nM
- GI50 (HCT116): 245 nM
- IC50 (tubulin [2]; [4]): 0.00065 ± 0.0001 mM
- GI50 (RXF-393): 363 nM
- GI50 (NCI-H226): 537 nM
- GI50 (SF-295; [6]): 324 nM
- GI50 (KM202L): 331 nM
- GI50 (OVCAR-3): 339 nM
- GI50 (SF-268; [7]): 5500 nM

From US5571822A, “Antitumor compounds” (The University of North Carolina at Chapel Hill, priority 1994, dated 1996)
